Consider 25 molecules from ChEMBL document CHEMBL5126646, “Synthesis and Biological Evaluation of Aurachin D Analogues as Inhibitors of Mycobacterium tuberculosis Cytochrome bd Oxidase” (ACS Med Chem Lett, 2022).

Values after ≈ are worked out from the molar mass of the structure shown. Bounds are passed on as bounds.

The nature of data set [1]: Inhibition of Mycobacterium tuberculosis cytochrome bd oxidase over expressed in inverted membrane vesicles of Mycobacterium smegmatis deltacydAB assessed as reduction in malate-induced increase in oxygen consumption rate measured after 60 secs in presence of cytochrome bcc-aa3 complex inhibitor TB47 by fluorespirometry. Type of data set: cell membranes, Membrane vesicle.

In data set [2] the test system is Mycobacterium tuberculosis. Put plainly: Antitubercular activity against Mycobacterium tuberculosis mc26230 incubated for 7 days. Type of data set: functional. The settings on record: mc26230, 168 h, time 7 day.
The nature of data set [3]: Growth inhibition of nonpathogenic Mycobacterium smegmatis mc2155 incubated for 48 hrs under shaking condition. To be noted: mycolicibacterium smegmatis.
Data set [4] has as its system Mycolicibacterium smegmatis. As to the kind of experiment: Growth inhibition of Mycobacterium smegmatis mc2155 harboring deltaqcr mutant incubated for 48 hrs under shaking condition. The class given is functional.
Data set [5] in a line: Inhibition of Mycobacterium tuberculosis cytochrome bd oxidase over expressed in inverted membrane vesicles of Mycobacterium smegmatis mc2155 deltacydAB assessed as reduction in malate-induced increase in oxygen consumption rate measured at 120 secs in presence of cytochrome bcc-aa3 complex inhibitor TB47 by fluorespirometry. Type of data set: cell membranes, Membrane vesicle.

What is called IC50 is the point on the concentration scale where inhibition reaches its midpoint. On to `Cc1[nH]c2ccccc2c(=O)c1Cc1ccccc1`, for which the IC50 in data set [1] came out at 4.8 µM. Further, the figures for the MIC in data set [2], in data set [3] and in data set [4] were 32 µM (≈ 7.98 µg/mL), greater than 512 µM and greater than 512 µM, respectively.

For `CC(C)=CCC/C(C)=C/Cc1c(C)[nH]c2ccc(N)cc2c1=O`, the IC50 in data set [1] stood at 33 µM. The MIC in data set [2], in data set [3] and in data set [4] was greater than 512 µM each time.

As for `COc1cccc2c(=O)c(C/C=C(\C)CC/C=C(\C)CCC=C(C)C)c(C)[nH]c12`, in data set [1], the concentration for half-maximal inhibition (IC50) came to 1.3 µM. Besides, the MIC in data set [2] was 64 µM (≈ 25.2 µg/mL); in data set [3], greater than 512 µM; in data set [4], greater than 512 µM.

For `CC(C)=CCC/C(C)=C/CC/C(C)=C/Cc1c(C)[nH]c2ccc([N+](=O)[O-])cc2c1=O`, in data set [1], the half-maximal inhibitory concentration (IC50) was found to be 1.8 µM. For the same molecule, the MIC in data set [2], in data set [3] and in data set [4] was greater than 512 µM each time.

For `CC(C)=CCC/C(C)=C/CC/C(C)=C/Cc1c(C)[nH]c2ccc(N=[N+]=[N-])cc2c1=O`, the IC50 in data set [1] worked out at 4.7 µM. Further, the MIC in data set [2] is 512 µM (≈ 207 µg/mL); in data set [3] it was greater than 512 µM; in data set [4], greater than 512 µM.

For the molecule `CC(C)=CCC/C(C)=C/CC/C(C)=C/Cc1c(C)[nH]c2cccc(O)c2c1=O`, the half-maximal inhibitory concentration (IC50) in data set [1] is 0.61 µM. For the same molecule, the MIC was 256 µM (≈ 97.2 µg/mL) in data set [2], greater than 512 µM in data set [3] and greater than 512 µM in data set [4].

Regarding `CC(C)=CCC/C(C)=C/CC/C(C)=C/Cc1c(C)[nH]c2cc(C(F)(F)F)ccc2c1=O`, in data set [1], the IC50 is greater than 1000 µM. In addition, the MIC in data set [2], in data set [3] and in data set [4] was greater than 512 µM throughout.

On to `CC(C)=CCC/C(C)=C/CC/C(C)=C/Cc1c(C)[nH]c2cc(N)ccc2c1=O`, for which, in data set [1], the IC50 is 1.8 µM. For the same molecule, the MIC in data set [2], in data set [3] and in data set [4] was greater than 512 µM throughout.

In the case of `COc1ccc2c(=O)c(C/C=C(\C)CC/C=C(\C)CCC=C(C)C)c(C)[nH]c2c1`, the 50% inhibitory concentration (IC50) in data set [1] was 0.13 µM. Moreover, the MIC in data set [2], in data set [3] and in data set [4] was greater than 512 µM each time.

For the molecule `CC(C)=CCC/C(C)=C/CC/C(C)=C/Cc1c(C)[nH]c2cc(C)ccc2c1=O`, the half-inhibitory concentration (IC50) in data set [1] worked out at 31 µM. Further, the MIC in data set [2], in data set [3] and in data set [4] was greater than 512 µM in each case.

As to `CC(C)=CCC/C(C)=C/CC/C(C)=C/Cc1c(C)[nH]c2ccc(F)cc2c1=O`, the half-maximal inhibitory concentration (IC50) in data set [1] worked out at 0.25 µM. Moreover, the MIC in data set [2] was 8 µM (≈ 3.05 µg/mL); in data set [3], greater than 512 µM; in data set [4] it was greater than 512 µM.

Consider `COc1cccc2[nH]c(C)c(C/C=C(\C)CC/C=C(\C)CCC=C(C)C)c(=O)c12`, for which, in data set [1], the IC50 amounted to 0.36 µM. In addition, the MIC in data set [2] is 32 µM (≈ 12.6 µg/mL); in data set [3], greater than 512 µM; in data set [4], greater than 512 µM.

Regarding `CC(C)=CCC[C@@H](C)CCc1c(C)[nH]c2ccccc2c1=O`, the IC50 in data set [1] turned out to be 0.35 µM. Besides, the MIC in data set [2] was 4 µM (≈ 1.19 µg/mL); in data set [3], greater than 512 µM; in data set [4], greater than 512 µM.

Consider `CC(C)=CCC/C(C)=C/CC/C(C)=C/Cc1c(C)[nH]c2ccc(O)cc2c1=O`, for which the IC50 in data set [1] was 0.59 µM. Also, the MIC in data set [2] is 256 µM (≈ 97.2 µg/mL); in data set [3] it was greater than 512 µM; in data set [4], greater than 512 µM.

Consider `CC(C)=CCC[C@@H](C)CCc1c(C)[nH]c2cc(N)ccc2c1=O`, for which the IC50 in data set [1] came out at 52 µM. The MIC is 512 µM (≈ 160 µg/mL) in data set [2], greater than 512 µM in data set [3] and greater than 512 µM in data set [4].

In the case of `CC(C)=CCC/C(C)=C/CC/C(C)=C/Cc1c(C)[nH]c2ccc(N)cc2c1=O`, the IC50 in data set [1] turned out to be 5 µM. For the same molecule, the MIC in data set [2], in data set [3] and in data set [4] was greater than 512 µM throughout.

As to `CC(C)=CCC/C(C)=C/CC/C(C)=C/Cc1c(C)[nH]c2ccc(Cl)cc2c1=O`, the 50% inhibitory concentration (IC50) in data set [1] came to 9 µM. Also, the MIC in data set [2], in data set [3] and in data set [4] was greater than 512 µM throughout.

`CC(C)=CCC/C(C)=C/CC/C(C)=C/Cc1c(C)[nH]c2cc(F)ccc2c1=O`: in data set [1], the IC50 worked out at 0.37 µM. Also, the MIC in data set [2] is 256 µM (≈ 97.7 µg/mL); in data set [3], greater than 512 µM; in data set [4], greater than 512 µM.

In the case of `CC(C)=CCC/C(C)=C/CC/C(C)=C/Cc1c(C)[nH]c2cc(Cl)cc(Cl)c2c1=O`, the IC50 in data set [1] was found to be 4.6 µM. Besides, the MIC in data set [2], in data set [3] and in data set [4] was greater than 512 µM in each case.

On to `COc1ccc2[nH]c(C)c(C/C=C(\C)CC/C=C(\C)CCC=C(C)C)c(=O)c2c1`, for which the IC50 in data set [1] stood at 0.67 µM. Moreover, the MIC in data set [2] is 256 µM (≈ 101 µg/mL); in data set [3] it was greater than 512 µM; in data set [4] it was greater than 512 µM.

Regarding `CC(C)=CCC/C(C)=C/CC/C(C)=C/Cc1c(C)[nH]c2cc(Cl)ccc2c1=O`, the concentration for half-maximal inhibition (IC50) in data set [1] was greater than 1000 µM. Also, the MIC in data set [2], in data set [3] and in data set [4] was greater than 512 µM in each case.

With `CC(C)=CCC/C(C)=C/Cc1c(C)[nH]c2ccccc2c1=O`, in data set [1], the half-inhibitory concentration (IC50) was 1.1 µM. The MIC in data set [2], in data set [3] and in data set [4] was greater than 512 µM in each case.

Consider `CC(C)=CCc1c(C)[nH]c2ccccc2c1=O`, for which, in data set [1], the IC50 stood at 5.8 µM. The MIC is 32 µM (≈ 7.27 µg/mL) in data set [2], greater than 512 µM in data set [3] and greater than 512 µM in data set [4].

`CC(C)=CCC/C(C)=C/CC/C(C)=C/Cc1c(C)[nH]c2cccc(F)c2c1=O`: the concentration for half-maximal inhibition (IC50) in data set [1] is 7.5 µM. For the same molecule, the MIC is 256 µM (≈ 97.7 µg/mL) in data set [2], greater than 512 µM in data set [3] and greater than 512 µM in data set [4].

As to `CC(C)=CCC/C(C)=C/CC/C(C)=C/Cc1c(C)[nH]c2ccccc2c1=O` [AURACHIN D], the IC50 in data set [5] amounted to 0.15 µM. In addition, the MIC in data set [2] was 8 µM (≈ 2.91 µg/mL); in data set [3], greater than 512 µM; in data set [4], greater than 512 µM.
